Data set [1] can be described thus: Chemical stability as % loss by LC-UV, 28 days 40° C. vs 5° C. (Example 19.11). The format is physicochemical. The procedure:
(§1) As for example 15 above, also the chemical stability of representative examples of these FA modified peptides has been assessed, using LC-UV instead of light scattering. Solubility and chemical stability were studied in 100 mM phosphate buffer (pH 7.4) and 100 mM acetate buffer (pH 4.5). Test compound powders were dissolved in both buffers at a target concentration of 10 mg/mL and incubated for 1 hour at room temperature. After centrifugation at 2500 rcf for 15 minutes, […] of supernatant was diluted with […] of the incubation buffer and analyzed by LC-UV (Acquity UPLC-DAD, Waters). Solubility was calculated by comparing the peak area of the test compound in the buffer sample with the peak area of the same compound dissolved at 0.5 mg/ml in water:acetonitrile 1:1, 0.1% formic acid.
From the centrifuged supernatant, two additional […] aliquots were collected and diluted with […] of incubation buffer. One aliquot was stored at 5° C., while the other was stored at 40° C. After 28 days, the samples were analyzed by LC-UV. Chemical stability was calculated as % loss using the following equations: • Chemical stability (as % loss)=[(purity after 28 days at 5° C.)−(purity after 28 days at 40° C.)]×100/(purity after 28 days at 5° C.) % purity=[(peak area compound)×100/(total peak area)]

Data set [2] is described as follows: Buffer solubility by LC-UV, pH 7.4 phosphate and pH 4.5 acetate (Example 19.11). In kind it is physicochemical. Conditions: target 10 mg/mL. The method, then:
as §1

The next data set deals with T1, human CRF2α receptor (Homo sapiens, UniProt Q13324).
T1 construct: expressed in transfected cells; host or cells: TeloHEAC
T1 sequence (Q13324 1-411): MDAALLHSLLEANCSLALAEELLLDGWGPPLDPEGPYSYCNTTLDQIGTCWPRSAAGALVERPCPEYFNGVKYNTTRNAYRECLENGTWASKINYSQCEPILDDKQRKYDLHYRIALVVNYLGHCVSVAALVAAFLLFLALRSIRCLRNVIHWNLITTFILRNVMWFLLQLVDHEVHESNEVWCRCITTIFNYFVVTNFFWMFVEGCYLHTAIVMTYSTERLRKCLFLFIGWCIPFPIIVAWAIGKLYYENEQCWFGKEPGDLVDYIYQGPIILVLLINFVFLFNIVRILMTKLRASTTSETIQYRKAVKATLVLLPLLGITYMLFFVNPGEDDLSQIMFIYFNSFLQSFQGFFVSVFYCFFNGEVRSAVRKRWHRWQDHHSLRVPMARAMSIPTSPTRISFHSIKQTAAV
Put plainly: cAMP agonism at human CRF2α receptor in TeloHEAC cells, FA modified peptides (Example 19.9). The format is cell-based. Conditions: 0% HSA, relative to urocortin 2. The essentials: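 Efficacy and EC50 are referenced to 100 nM urocortin 2 as 100%, with cAMP measured as the 665/620 nm HTRF ratio after 1 h at room temperature. Compounds (0.5 mM DMSO stock, 16 twofold dilutions) acted 30 min at 37 °C on CRF2α-expressing TeloHEAC cells, buffer containing IBMX and 0% or 0.2% HSA.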

In another data set the target is T2, CRF1R receptor (Homo sapiens, UniProt P34998).
T2 construct: host or cells: CHO-K1 clone 2
T2 sequence (P34998 24-415): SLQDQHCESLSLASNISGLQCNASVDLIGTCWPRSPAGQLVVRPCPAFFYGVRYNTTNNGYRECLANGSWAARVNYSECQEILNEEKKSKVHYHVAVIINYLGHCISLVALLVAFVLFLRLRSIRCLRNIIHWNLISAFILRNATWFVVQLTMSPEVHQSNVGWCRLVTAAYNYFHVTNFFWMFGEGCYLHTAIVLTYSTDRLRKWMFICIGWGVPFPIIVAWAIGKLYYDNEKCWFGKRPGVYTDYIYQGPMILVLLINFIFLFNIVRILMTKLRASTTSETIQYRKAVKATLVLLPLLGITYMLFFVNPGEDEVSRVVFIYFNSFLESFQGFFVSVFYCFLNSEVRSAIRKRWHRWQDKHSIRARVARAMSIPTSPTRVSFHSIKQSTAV
Put plainly: cAMP activity at anti-target CRF1R, CHO-K1 cell line clone 2 (Example 19.10). Conditions: for Emax: 100% = Sauvagine at 100 nM; for CRF1/CRF2 ratio: ratio of CRF1 EC50 to CRF2 EC50. The format is cell-based. The essentials: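 The cAMP read-out used the same protocol as the previous assay, except that Sauvagine at 100 nM set the 100% activation control. Cells were CHO-K1 clone 2 overexpressing CRF1R, cultured in F12 medium with 10% FBS and G418 and stored frozen until use.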

Data set [3] can be described thus: In vitro plasma stability, rat plasma (Example 19.11). The format is in vitro ADME, Sprague Dawley rats. Details: remaining at 2 h: dose or concentration left out as unconfirmed. Conditions: male, Sprague Dawley, rat, plasma, 37° C. The method, then:
(§2) In vitro plasma metabolic stability was studied in male Sprague Dawley rats and human. Test compound were incubated […] for 2 hours at 37° C. At each time point (0, 0.25, 1 and 2 h), samples were prepared for analysis by means of a single step protein precipitation technique by adding 150 μL of ethanol, 0.1% formic acid to 50 μL aliquots of plasma. Samples were mixed by vortex for homogeneity and then subjected to centrifugation at 14000 rpm for 15 min. The supernatant (100 μL) was collected, diluted with 100 μL of water, 0.1% formic acid and analyzed by LC-HRMS (TripleTOF 6600+, AB Sciex). For each test compound, the area ratios at each time point were compared to the 0 h area ratio and converted to a percentage remaining.

A short description of data set [4]: In vitro plasma stability, human plasma (Example 19.11). In kind it is in vitro ADME. Conditions: 37° C. Details: dose or concentration left out as unconfirmed. The method, then:
as §2

Where [5] appears, read: pH 7.4, 100 mM phosphate buffer.
Where [6] appears, read: 0% HSA, CRF1R CHO-K1 clone 2, read-out: EC50 [nM] 0% HSA.
Where [7] appears, read: Table 20 side-to-side comparison, read-out: CRF1 EC50.

This is an account of results in patent publication US12679878B2, “CRF2 receptor agonists and their use in therapy” (SANOFI, priority 2020, dated 2026).

Molecules are shown by their SMILES. Converted amounts (≈) assume the structure as drawn. Read-outs that look alike come from different tables or passages of the source. Starred links: 1 amine or outer side, 2 acyl side, 3 side chain; linkers in the order of their positions; H or OH if unused. Non-standard residues stand in square brackets, D forms with d. Residues, ends and D or L forms follow the SMILES beside them. Groups on a side chain read outwards from the residue. *: point of attachment. C16 diacid = O=C(O)CCCCCCCCCCCCCCC(=O)*; γGlu = O=C(O)[C@H](CCC(=O)[*:2])N[*:1]; Aib = CC(C)(N)C(=O)O Bounds are passed on as bounds.

With `CC[C@H](C)[C@H](N)C(=O)N[C@H](C(=O)N[C@@H](CC(C)C)C(=O)N[C@@H](CO)C(=O)N[C@@H](CC(C)C)C(=O)N[C@@H](CC(=O)O)C(=O)N[C@@H](C(=O)N1CCC[C@H]1C(=O)N[C@H](C(=O)N[C@@H](CCCCN)C(=O)N[C@@H](CC(C)C)C(=O)N[C@@H](CCCCNC(=O)CC[C@H](NC(=O)CCCCCCCCCCCCCCC(=O)O)C(=O)O)C(=O)N[C@@H](CCC(N)=O)C(=O)N[C@H](C(=O)N[C@@H](CC(C)C)C(=O)N[C@@H](CC(C)C)C(=O)N[C@@H](CCCCN)C(=O)N[C@@H](CCC(N)=O)C(=O)N[C@@H](CCC(=O)O)C(=O)N[C@@H](CCCNC(=N)N)C(=O)N[C@@H](CCC(N)=O)C(=O)N[C@@H](CCCCN)C(=O)N[C@@H](CCCCN)C(=O)NC(C)(C)C(=O)N[C@@H](CCCNC(=N)N)C(=O)N[C@@H](CCC(N)=O)C(=O)N[C@@H](CCCCN)C(=O)N[C@@H](C)C(=O)N[C@@H](CCC(=O)O)C(=O)N[C@@H](CCCCN)C(=O)N[C@@H](CC(N)=O)C(=O)N[C@@H](CCCCN)C(=O)N[C@@H](CCC(N)=O)C(=O)N[C@H](C(=O)N[C@@H](CC(C)C)C(=O)N[C@@H](C)C(=O)N[C@@H](CCC(N)=O)C(=O)N[C@H](C(N)=O)C(C)C)[C@@H](C)CC)[C@@H](C)CC)[C@@H](C)CC)C(C)C)C(C)C` [compound 189] (H-IVLSLD[dV]PIKLK([γGlu-C16 diacid])QILLKQERQKK[Aib]RQKAEKNKQILAQV-NH2; N-terminus assumed), the “% loss (chemical stability)” value in data set [1] (pH 4.5) is reported as 0%; in data set [1] (pH 7.4) it was 48%. In addition, the solubility at 1 h amounted to 9000 µg/mL (≈ 1860 µM) in data set [2] (pH 4.5, 100 mM acetate buffer) and 6300 µg/mL (≈ 1300 µM) in data set [2] (setting [5]). For the same compound, the results for the EC50 at human CRF2α receptor, at CRF1R receptor (setting [6]) and at CRF1R receptor (setting [7]) were 3.49 nM, above 100 nM and above 100 nM, respectively. The same compound had an Emax at CRF1R receptor (CRF1R CHO-K1 clone 2) of 15%. Besides, the CRF1/CRF2 ratio on CRF1R receptor is above 500. Also, the fraction remaining at 2 h was found to be 101% in data set [3] and 97% in data set [4].

For the compound `CC[C@H](C)[C@H](N)C(=O)N[C@H](C(=O)N[C@@H](CC(C)C)C(=O)N[C@@H](CO)C(=O)N[C@@H](CC(C)C)C(=O)N[C@@H](CC(=O)O)C(=O)N[C@@H](C(=O)N1CCC[C@H]1C(=O)N[C@H](C(=O)N[C@@H](CCCCN)C(=O)N[C@@H](CC(C)C)C(=O)N[C@@H](CCCCNC(=O)CC[C@H](NC(=O)CCCCCCCCCCCCCCC(=O)O)C(=O)O)C(=O)N[C@@H](CCC(N)=O)C(=O)N[C@H](C(=O)N[C@@H](CC(C)C)C(=O)N[C@@H](CC(C)C)C(=O)N[C@@H](CCCCN)C(=O)N[C@@H](CCC(N)=O)C(=O)N[C@@H](CCC(=O)O)C(=O)N[C@@H](CCCNC(=N)N)C(=O)N[C@@H](CCC(N)=O)C(=O)N[C@@H](CCCCN)C(=O)N[C@@H](CCCCN)C(=O)N[C@@H](CCC(N)=O)C(=O)N[C@@H](CCCNC(=N)N)C(=O)N[C@@H](CCC(=O)O)C(=O)N[C@@H](CCC(N)=O)C(=O)N[C@@H](C)C(=O)N[C@@H](CCC(=O)O)C(=O)N[C@@H](CCCCN)C(=O)N[C@@H](CC(N)=O)C(=O)N[C@@H](CCCCN)C(=O)N[C@@H](CCC(N)=O)C(=O)N[C@H](C(=O)N[C@@H](CC(C)C)C(=O)N[C@@H](CCC(=O)O)C(=O)N[C@@H](CCC(N)=O)C(=O)N[C@H](C(N)=O)C(C)C)[C@@H](C)CC)[C@@H](C)CC)[C@@H](C)CC)C(C)C)C(C)C` [compound 190] (H-IVLSLD[dV]PIKLK([γGlu-C16 diacid])QILLKQERQKKQREQAEKNKQILEQV-NH2; N-terminus assumed), the “% loss (chemical stability)” value in data set [1] (pH 4.5) is on record as 0%; in data set [1] (pH 7.4), 35%. Further, the solubility at 1 h in data set [2] (pH 4.5, 100 mM acetate buffer) stood at 8500 µg/mL (≈ 1720 µM); in data set [2] (setting [5]), 8500 µg/mL (≈ 1720 µM). In addition, the concentration for a half-maximal effect (EC50) at human CRF2α receptor was 2.47 nM; on CRF1R receptor (setting [6]) it was above 100 nM; on CRF1R receptor (setting [7]) it was above 100 nM. This compound gave a maximum response (Emax) on CRF1R receptor (CRF1R CHO-K1 clone 2) of 12%. Besides, the CRF1/CRF2 ratio on CRF1R receptor is above 500. In addition, the amount remaining at 2 h in data set [3] stood at 92%; in data set [4], 100%.

For `CC[C@H](C)[C@H](N)C(=O)N[C@H](C(=O)N[C@@H](CC(C)C)C(=O)N[C@@H](CO)C(=O)N[C@@H](CC(C)C)C(=O)N[C@@H](CC(=O)O)C(=O)N[C@@H](C(=O)N1CCC[C@H]1C(=O)N[C@H](C(=O)N[C@@H](CCCCN)C(=O)N[C@@H](CC(C)C)C(=O)N[C@@H](CCCCNC(=O)CC[C@H](NC(=O)CCCCCCCCCCCCCCC(=O)O)C(=O)O)C(=O)N[C@@H](CCC(N)=O)C(=O)N[C@H](C(=O)N[C@@H](CC(C)C)C(=O)N[C@@H](CC(C)C)C(=O)N[C@@H](CCCCN)C(=O)N[C@@H](CCC(N)=O)C(=O)N[C@@H](CCC(=O)O)C(=O)N[C@@H](CCCNC(=N)N)C(=O)N[C@@H](CCC(N)=O)C(=O)N[C@@H](CCCCN)C(=O)N[C@@H](CCCCN)C(=O)N[C@@H](CCC(N)=O)C(=O)N[C@@H](CCCNC(=N)N)C(=O)N[C@@H](CCC(=O)O)C(=O)N[C@@H](CCCCN)C(=O)N[C@@H](C)C(=O)N[C@@H](CCC(=O)O)C(=O)N[C@@H](CCCCN)C(=O)N[C@@H](CC(N)=O)C(=O)N[C@@H](CCCCN)C(=O)N[C@@H](CCC(N)=O)C(=O)N[C@H](C(=O)N[C@@H](CC(C)C)C(=O)N[C@@H](C)C(=O)N[C@@H](CCC(N)=O)C(=O)N[C@H](C(N)=O)C(C)C)[C@@H](C)CC)[C@@H](C)CC)[C@@H](C)CC)C(C)C)C(C)C` [compound 191] (H-IVLSLD[dV]PIKLK([γGlu-C16 diacid])QILLKQERQKKQREKAEKNKQILAQV-NH2), the “% loss (chemical stability)” value in data set [1] (pH 4.5) worked out at 0%; in data set [1] (pH 7.4), 54%. Moreover, the solubility at 1 h in data set [2] (pH 4.5, 100 mM acetate buffer) was 8500 µg/mL (≈ 1740 µM); in data set [2] (setting [5]), 9000 µg/mL (≈ 1840 µM). In addition, the half-maximal effective concentration (EC50) on human CRF2α receptor was 2.68 nM; at CRF1R receptor (setting [6]), above 100 nM. The compound also registered an Emax on CRF1R receptor (CRF1R CHO-K1 clone 2) of 12.5%. Moreover, the figures for the fraction remaining at 2 h in data set [3] and in data set [4] were 85% and 96%, respectively.

A word on the solubility: it is the concentration that dissolves in the medium under given conditions. Usually EC50 stands for the concentration needed to bring the measured effect to its halfway point. By Emax is commonly meant the size of the effect at its maximum, as opposed to the concentration needed.
